From ChEMBL document CHEMBL4382294, “Synthesis of a 6-Aza-Isoindolinone-Based Inhibitor of Phosphoinositide 3-Kinase γ via Ruthenium-Catalyzed [2 + 2 + 2] Cyclotrimerization” (ACS Med Chem Lett, 2019)

Columns and labels:
Homo sapiens [1] = organism: Homo sapiens; assay: Selectivity ratio of IC50 for PI3Kdelta (unknown origin) to IC50 for PI3Kgamma (unknown origin)
[2] = molecular target: T1, Phosphatidylinositol 4,5-bisphosphate 3-kinase catalytic subunit gamma isoform (Homo sapiens, UniProt P48736); assay: Inhibition of PI3Kgamma in human THP1 cells assessed as reduction in MCP1-induced Akt phosphorylation at Thr308/Ser473 residue preincubated for 1 hr followed by MCP1 stimulation for 3 mins by FACS analysis; assay type: cell-based
Homo sapiens [3] = organism: Homo sapiens; assay: Selectivity ratio of IC50 for PI3Kbeta (unknown origin) to IC50 for PI3Kgamma (unknown origin)
Homo sapiens [4] = organism: Homo sapiens; assay: Selectivity ratio of IC50 for PI3Kalpha (unknown origin) to IC50 for PI3Kgamma (unknown origin)
[5] = molecular target: T1, Phosphatidylinositol 4,5-bisphosphate 3-kinase catalytic subunit gamma isoform; assay: Inhibition of PI3Kgamma (unknown origin) using PIP2 as substrate measured after 15 mins in presence of [33P]ATP by scintillation counting method

T1 sequence (P48736 whole entry, canonical isoform): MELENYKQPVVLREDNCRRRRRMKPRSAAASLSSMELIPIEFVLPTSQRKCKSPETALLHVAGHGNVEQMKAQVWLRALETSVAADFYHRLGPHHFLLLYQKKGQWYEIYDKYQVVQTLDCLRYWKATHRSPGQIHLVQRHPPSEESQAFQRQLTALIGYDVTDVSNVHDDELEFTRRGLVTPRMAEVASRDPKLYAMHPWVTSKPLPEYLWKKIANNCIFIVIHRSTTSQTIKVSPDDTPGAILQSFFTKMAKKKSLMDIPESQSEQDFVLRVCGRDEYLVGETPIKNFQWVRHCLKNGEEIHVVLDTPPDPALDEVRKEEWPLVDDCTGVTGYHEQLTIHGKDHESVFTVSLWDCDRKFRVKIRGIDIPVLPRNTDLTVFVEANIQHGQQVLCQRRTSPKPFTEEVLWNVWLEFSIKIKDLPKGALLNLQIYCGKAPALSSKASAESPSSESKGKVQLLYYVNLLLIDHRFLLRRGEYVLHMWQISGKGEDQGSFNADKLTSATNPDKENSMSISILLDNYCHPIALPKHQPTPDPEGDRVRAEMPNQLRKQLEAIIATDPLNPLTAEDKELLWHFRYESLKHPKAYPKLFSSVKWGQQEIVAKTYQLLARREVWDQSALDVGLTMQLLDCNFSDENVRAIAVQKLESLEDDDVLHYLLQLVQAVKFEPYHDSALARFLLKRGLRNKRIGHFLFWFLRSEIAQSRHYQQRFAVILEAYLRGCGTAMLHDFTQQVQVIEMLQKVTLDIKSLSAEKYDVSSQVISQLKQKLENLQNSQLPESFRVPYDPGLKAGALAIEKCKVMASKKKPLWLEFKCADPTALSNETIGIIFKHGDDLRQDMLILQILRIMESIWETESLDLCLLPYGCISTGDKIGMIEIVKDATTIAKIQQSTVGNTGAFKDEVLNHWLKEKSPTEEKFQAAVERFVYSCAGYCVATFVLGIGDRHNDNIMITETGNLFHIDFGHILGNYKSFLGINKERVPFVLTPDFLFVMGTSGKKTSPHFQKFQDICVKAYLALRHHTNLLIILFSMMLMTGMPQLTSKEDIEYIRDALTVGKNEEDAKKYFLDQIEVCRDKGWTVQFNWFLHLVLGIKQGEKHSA

Ratio IC50 (Homo sapiens [1]) | IC50 [2] | Ratio IC50 (Homo sapiens [3]) | Ratio IC50 (Homo sapiens [4]) | Ki [5] | SMILES
13 | 47 nM | 31 | 65 | – | COc1cc(-c2ccc3c(n2)CN(c2cnn(CC(F)(F)F)c2)C3=O)cnc1OC
6 | 270 nM | 8 | 15 | 14 nM | COc1cc(-c2cc3c(c(C)n2)C(=O)N(c2cnn(CC(F)(F)F)c2)C3)cnc1OC
